Among the test systems are HOP-62; HT-29; COLO 205; TK-10; SF-539; OVCAR-5; HCT-116; NCI-H23; MOLT-4; UACC-257; U-251; HL-60; HCC 2998; SR; OVCAR-4; M14; SK-MEL-2; CAKI-1.
Holding throughout (experiment): NCI-60 cell line screen, 48 h

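Test compounds were applied to cells in 96-well plates for 48 hours at 5 doses. GI50: concentration for 50% inhibition of growth.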 Active and inactive are the calls of the source. No stated cut-off is given here; in the data, active = GI50 up to about 1.1 µM and inactive = higher. A value given as a limit tells only on which side of the number the result lay.

Turning to `C=C(Br)N(CC)CC`, the GI50 in the experiment with HOP-62, in the experiment on HT-29, in the experiment with COLO 205, in the experiment on TK-10, in the experiment with SF-539 and in the experiment on OVCAR-5 was > 100 µM (inactive) each time. Moreover, the GI50 with HCT-116, in the experiment on NCI-H23, in the experiment with MOLT-4, in the experiment with UACC-257, with U-251 and in the experiment with HL-60 was > 100 µM (inactive) in each case. In addition, the GI50 with HCC 2998, in the experiment with SR, with OVCAR-4, in the experiment on M14, with SK-MEL-2 and in the experiment on CAKI-1 was > 100 µM (inactive) in each case.
Consider `CN(C)C(=S)N=C(Nc1ccccc1)Nc1ccccc1`, for which the GI50 in the experiment with HOP-62, with HT-29, with COLO 205, in the experiment with TK-10, with SF-539 and with OVCAR-5 was > 100 µM (inactive) in each case. The GI50 with HCT-116, in the experiment with NCI-H23, with MOLT-4, in the experiment with UACC-257, with U-251 and in the experiment with HL-60 was > 100 µM (inactive) throughout. In addition, the GI50 in the experiment on HCC 2998, in the experiment with SR, in the experiment on OVCAR-4, with M14, with SK-MEL-2 and in the experiment on CAKI-1 was > 100 µM (inactive) each time.
With `C#CCN(Cc1ccc2nc(-c3ccccc3)c(Cl)nc2c1)c1ccc(Cl)c(Cl)c1`, the GI50 in the experiment on HOP-62, in the experiment on HT-29, in the experiment with COLO 205, in the experiment on TK-10, in the experiment with SF-539 and in the experiment with OVCAR-5 was > 100 µM (inactive) in each case. The GI50 with HCT-116, with NCI-H23, in the experiment on MOLT-4, in the experiment on UACC-257, in the experiment with U-251 and in the experiment with HL-60 was > 100 µM (inactive) throughout. Further, the GI50 in the experiment with HCC 2998 is 33.5 µM (inactive); in the experiment with SR, > 100 µM (inactive); with OVCAR-4, > 100 µM (inactive); with M14, > 100 µM (inactive); in the experiment with SK-MEL-2, > 100 µM (inactive); in the experiment on CAKI-1, > 100 µM (inactive).
Take `CC(=O)N1C/C(=C\c2ccccc2)C(=O)/C(=C/c2ccccc2)C1`: the GI50 with HOP-62 was 11.4 µM (inactive); with HT-29, 3.04 µM (inactive); in the experiment on COLO 205, 17.6 µM (inactive); in the experiment with TK-10, 18.2 µM (inactive); with SF-539 it was 19.3 µM (inactive); in the experiment with OVCAR-5, 19.4 µM (inactive). For the same molecule, the GI50 in the experiment with HCT-116 is 2.51 µM (inactive); in the experiment on NCI-H23, 19 µM (inactive); in the experiment on MOLT-4 it was 4.2 µM (inactive); in the experiment with UACC-257, 6.9 µM (inactive); with U-251 it was 15.6 µM (inactive); in the experiment with HL-60, 1.68 µM (inactive). For the same molecule, the GI50 is 10.9 µM (inactive) in the experiment on HCC 2998; 2.99 µM (inactive) in the experiment on SR; 17.6 µM (inactive) in the experiment with OVCAR-4; 6.98 µM (inactive) with M14; 24.9 µM (inactive) in the experiment with SK-MEL-2; 17.6 µM (inactive) in the experiment on CAKI-1.
As for `COc1cc2cnc3c4cc(OCc5ccccc5)ccc4ccc3c2cc1OC`, the GI50 is 18.9 µM (inactive) in the experiment on HOP-62; 25.1 µM (inactive) with HT-29; 18.5 µM (inactive) in the experiment on COLO 205; 16.1 µM (inactive) in the experiment with TK-10; 34 µM (inactive) in the experiment on SF-539; > 100 µM (inactive) with OVCAR-5. The GI50 was 45.8 µM (inactive) in the experiment on HCT-116; 25.2 µM (inactive) in the experiment with NCI-H23; 5.06 µM (inactive) in the experiment with MOLT-4; 26.7 µM (inactive) with UACC-257; 24.3 µM (inactive) in the experiment on U-251; 1.66 µM (inactive) in the experiment on HL-60. Also, the GI50 is 31.8 µM (inactive) in the experiment with HCC 2998; 4.5 µM (inactive) in the experiment on SR; 6.92 µM (inactive) with OVCAR-4; 19.8 µM (inactive) in the experiment with M14; 18.8 µM (inactive) with SK-MEL-2; 26.7 µM (inactive) with CAKI-1.
For `CC/C=C\C/C=C\C/C=C\CCCCCCCC(=O)OCC(O)CO` (stereo not given), the GI50 in the experiment on HOP-62 is > 100 µM (inactive); with HT-29, > 68.5 µM (inactive); in the experiment with COLO 205, 70.5 µM (inactive); in the experiment with TK-10, > 100 µM (inactive); with SF-539, > 100 µM (inactive); with OVCAR-5, > 100 µM (inactive). For the same molecule, the GI50 with HCT-116 was > 55.6 µM (inactive); with NCI-H23, > 74.5 µM (inactive); in the experiment on MOLT-4 it was > 46.2 µM (inactive); in the experiment on UACC-257 it was > 86.1 µM (inactive); in the experiment with U-251, > 57.8 µM (inactive); in the experiment with HL-60 it was 20.7 µM (inactive). Moreover, the GI50 is > 100 µM (inactive) with HCC 2998; 1 µM (active) with SR; > 84.3 µM (inactive) in the experiment on OVCAR-4; > 61.7 µM (inactive) in the experiment with M14; 97.9 µM (inactive) with SK-MEL-2; 38 µM (inactive) in the experiment with CAKI-1.
For the molecule `CO[C@H](C(=O)O[C@H]1C(=O)N2CCC3CCC1C32C)c1ccccc1` (stereo not given in full), the GI50 in the experiment with HOP-62, in the experiment on HT-29, in the experiment on COLO 205, in the experiment on SF-539, with OVCAR-5 and in the experiment on HCT-116 was > 100 µM (inactive) throughout. Moreover, the GI50 in the experiment with NCI-H23, in the experiment with MOLT-4, in the experiment on UACC-257, with U-251, in the experiment on HL-60 and in the experiment with HCC 2998 was > 100 µM (inactive) in each case. The GI50 with SR, in the experiment on OVCAR-4, in the experiment on M14, in the experiment with SK-MEL-2 and in the experiment with CAKI-1 was > 100 µM (inactive) in each case.
With `CC(=O)Oc1c2c(c(OC(C)=O)c3c1n(C(C)=O)c1ccccc1n3C(C)=O)n(C(C)=O)c1ccccc1n2C(C)=O`, the GI50 in the experiment on HOP-62 is 8.17 µM (inactive); with HT-29, 3.18 µM (inactive); in the experiment on SF-539, 13.4 µM (inactive); in the experiment with HCT-116 it was 1.95 µM (inactive); in the experiment with NCI-H23, 8.24 µM (inactive); in the experiment with MOLT-4, 2.3 µM (inactive). Moreover, the GI50 was 3.42 µM (inactive) in the experiment with UACC-257; 10.9 µM (inactive) in the experiment with U-251; 2.67 µM (inactive) in the experiment on HL-60; 3.67 µM (inactive) in the experiment with HCC 2998; 2.62 µM (inactive) in the experiment on SR; 16.9 µM (inactive) in the experiment on OVCAR-4. Also, the values for the GI50 in the experiment with M14, in the experiment on SK-MEL-2 and in the experiment on CAKI-1 were 4.44 µM (inactive), 5.18 µM (inactive) and 10.9 µM (inactive), respectively.

(Values after ChEMBL document CHEMBL1201862, “PubChem BioAssay data set” (2004).)
